Test results: the NIST ThermoML archive (doi:10.1016/j.jct.2017.03.006)
Numbers after ± are expanded uncertainties.

Test: xn = mol fraction of the nth substance listed
Settings: Liquid; for mass density: 293.15 K, Vibrating tube method; for viscosity: Concentric cylinders viscometry

Cc1ccc(C)c(C)c1 [1,2,4-trimethylbenzene] + CCC(C)O
mass density [kg/m3]
Settings | x2 = 0 | x2 = 0.1 | x2 = 0.1989 | x2 = 0.3011 | x2 = 0.4002 | x2 = 0.5001 | x2 = 0.5997 | x2 = 0.6999 | x2 = 0.7999 | x2 = 0.9
100 kPa | – | – | 863.6 ± 0.7 | 857.4 ± 0.7 | 851.4 ± 0.7 | 845 ± 0.7 | 838.2 ± 0.7 | 831.1 ± 0.7 | 823.6 ± 0.7 | 815.3 ± 0.7
1000 kPa | 875.7 ± 0.7 | 869.9 ± 0.7 | 864.2 ± 0.7 | 858 ± 0.7 | 852 ± 0.7 | 845.6 ± 0.7 | 838.9 ± 0.7 | 831.8 ± 0.7 | 824.3 ± 0.7 | 816 ± 0.7
2000 kPa | 876.3 ± 0.7 | 870.6 ± 0.7 | 864.9 ± 0.7 | 858.8 ± 0.7 | 852.8 ± 0.7 | 846.4 ± 0.7 | 839.7 ± 0.7 | 832.6 ± 0.7 | 825 ± 0.7 | 816.8 ± 0.7
5000 kPa | 878.2 ± 0.7 | 872.7 ± 0.7 | 867 ± 0.7 | 860.9 ± 0.7 | 854.9 ± 0.7 | 848.5 ± 0.7 | 841.9 ± 0.7 | 834.8 ± 0.7 | 827.3 ± 0.7 | 819.1 ± 0.7
10000 kPa | 881.4 ± 0.7 | 875.9 ± 0.7 | 870.3 ± 0.7 | 864.2 ± 0.7 | 858.3 ± 0.7 | 852 ± 0.7 | 845.4 ± 0.7 | 838.3 ± 0.7 | 830.9 ± 0.7 | 822.7 ± 0.7
15000 kPa | 884.4 ± 0.7 | 879 ± 0.7 | 873.4 ± 0.7 | 867.5 ± 0.7 | 861.6 ± 0.7 | 855.3 ± 0.7 | 848.7 ± 0.7 | 841.7 ± 0.7 | 834.3 ± 0.7 | 826.1 ± 0.7
20000 kPa | 887.3 ± 0.7 | 882.1 ± 0.7 | 876.5 ± 0.7 | 870.6 ± 0.7 | 864.7 ± 0.7 | 858.5 ± 0.7 | 851.9 ± 0.7 | 845 ± 0.7 | 837.6 ± 0.7 | 829.5 ± 0.7
30000 kPa | 892.9 ± 0.7 | 887.9 ± 0.7 | 882.4 ± 0.7 | 876.6 ± 0.7 | 870.8 ± 0.7 | 864.6 ± 0.7 | 858.1 ± 0.7 | 851.2 ± 0.7 | 843.9 ± 0.8 | 835.8 ± 0.8
40000 kPa | 898.2 ± 0.7 | 893.4 ± 0.7 | 888 ± 0.7 | 882.2 ± 0.7 | 876.5 ± 0.7 | 870.4 ± 0.8 | 863.9 ± 0.8 | 857 ± 0.8 | 849.7 ± 0.8 | 841.7 ± 0.8
50000 kPa | 903.2 ± 0.7 | 898.6 ± 0.7 | 893.2 ± 0.8 | 887.5 ± 0.8 | 881.8 ± 0.8 | 875.7 ± 0.8 | 869.3 ± 0.8 | 862.5 ± 0.8 | 855.2 ± 0.8 | 847.2 ± 0.8
60000 kPa | 908 ± 0.8 | 903.6 ± 0.8 | 898.3 ± 0.8 | 892.5 ± 0.8 | 886.9 ± 0.8 | 880.9 ± 0.8 | 874.4 ± 0.8 | 867.7 ± 0.8 | 860.4 ± 0.8 | 852.5 ± 0.8
70000 kPa | 912.6 ± 0.8 | 908.3 ± 0.8 | 903 ± 0.8 | 897.3 ± 0.8 | 891.8 ± 0.8 | 885.8 ± 0.8 | 879.4 ± 0.8 | 872.7 ± 0.8 | 865.5 ± 0.8 | 857.5 ± 0.8
80000 kPa | 916.9 ± 0.8 | 912.9 ± 0.8 | 907.6 ± 0.8 | 902 ± 0.8 | 896.4 ± 0.8 | 890.4 ± 0.8 | 884 ± 0.8 | 877.3 ± 0.8 | 870.1 ± 0.8 | 862.3 ± 0.9
90000 kPa | 921.1 ± 0.8 | 917.2 ± 0.8 | 912 ± 0.8 | 906.4 ± 0.8 | 900.9 ± 0.8 | 894.9 ± 0.8 | 888.6 ± 0.8 | 881.9 ± 0.8 | 874.8 ± 0.9 | 866.8 ± 0.9
100000 kPa | 925.1 ± 0.8 | 921.4 ± 0.8 | 916.2 ± 0.8 | 910.6 ± 0.8 | 905.1 ± 0.8 | 899.2 ± 0.8 | 892.9 ± 0.8 | 886.2 ± 0.9 | 879 ± 0.9 | 871.2 ± 0.9
110000 kPa | 929 ± 0.8 | 925.4 ± 0.8 | 920.3 ± 0.8 | 914.8 ± 0.8 | 909.2 ± 0.8 | 903.4 ± 0.8 | 897.1 ± 0.9 | 890.4 ± 0.9 | 883.3 ± 0.9 | 875.4 ± 0.9
120000 kPa | 932.8 ± 0.8 | 929.3 ± 0.8 | 924.2 ± 0.8 | 918.7 ± 0.8 | 913.2 ± 0.8 | 907.4 ± 0.8 | 901.2 ± 0.9 | 894.4 ± 0.9 | 887.3 ± 0.9 | 879.5 ± 0.9
130000 kPa | 936.4 ± 0.8 | 933.1 ± 0.8 | 928 ± 0.8 | 922.6 ± 0.8 | 917.1 ± 0.8 | 911.3 ± 0.9 | 905.1 ± 0.9 | 898.4 ± 0.9 | 891.2 ± 0.9 | 883.4 ± 0.9
140000 kPa | 939.9 ± 0.8 | 936.7 ± 0.8 | 931.6 ± 0.8 | 926 ± 0.8 | 920.5 ± 0.8 | 914.9 ± 0.9 | 908.7 ± 0.9 | 901.9 ± 0.9 | 894.7 ± 0.9 | 887 ± 1

viscosity [mPa·s], 100 kPa
Settings | x2 = 0 | x2 = 0.1001 | x2 = 0.2261 | x2 = 0.3 | x2 = 0.3966 | x2 = 0.5298 | x2 = 0.6001 | x2 = 0.7001 | x2 = 0.7997 | x2 = 0.9001
303.15 K | 0.779 ± 0.017 | 0.774 ± 0.017 | 0.786 ± 0.017 | 0.802 ± 0.017 | 0.858 ± 0.018 | 0.923 ± 0.02 | 1.01 ± 0.021 | 1.16 ± 0.024 | 1.4 ± 0.029 | 1.8 ± 0.037
313.15 K | 0.692 ± 0.015 | 0.687 ± 0.015 | 0.689 ± 0.015 | 0.698 ± 0.015 | 0.74 ± 0.016 | – | – | – | – | –
